Data as given in patent US5004758A, “Water soluble camptothecin analogs useful for inhibiting the growth of animal tumor cells” (priority 1988, dated 1991).
Where a name gives a salt, the structure may show the parent alone. Read-outs that look alike come from different tables or passages of the source.

Columns and labels:
ip P388 leukemia = conditions: ip P388 (10^6 cells), ip, Days 1 & 5
Experimental: Increase in lifespan (ILS) is based on median survival time of groups of 6 mice. Net tumor cell kill (NCK) is calculated from median survival time by standard methods, since survival time is a linear function of the log tumor cell burden.
Animals were implanted ip with 10^6 cells. Increase in lifespan (ILS) is based on median survival time of groups of 6 mice relative to untreated controls. Long-term survivors were tumor-free on Day 45.
Tumors used in these studies--P388 leukemia and its doxorbicin--and mitoxanrone-resistant sublines, L1210 leukemia, B16 melanoma, B16 melanoma/F10 subline, M5076 sarcoma and colon carcinoma 26--are maintained by serial transplantation in syngeneic strains of mice. For the leukemias, these tumors are maintained in DBA/2 mice. The M5076 sarcoma, the B16 melanoma and its F10 subline are maintained in C57B1/6 mice and the colon sarcinoma 26 is maintained in BALB/c mice. The leukemias and the M5076 sarcoma are serially transplanted i.p. as ascites cell suspensions while the B16 melanoma lines and the colon carcinoma 26 are serially transplanted as s.c. solid tumors.
For therapeutic trials, tumors are aseptically removed from donor mice and prepared as suspensions for implantation ip into test animals. The test animals for the colon carcinoma 26 are female BALB/c mice (20-25 gm). The test animals for the other tumor models are syngeneic female F1 hybrid B6D2F1 mice (C57B1/6 x DBA/2). The inoculum level varies with the type of tumor: P388 leukemia is inoculated at 10^6 cells per mouse, L1210 leukemia at 10^5 or 10^6 cells per mouse, M5076 sarcoma at 5×10^6 cells per mouse. For implantation of the B16 melanoma lines and the colon carcinoma 26, s.c. tumors from donor mice are minced and homogenized in loose fitting teflon glass homogenizer to give a tumor brei. The inoculum levels are 0.5 ml of a 10 percent (w:v) brei of the B16 melanoma lines and 0.5 ml of a 5 percent (w:v) brei of colon carcinoma 26. After tumor inoculation, mice randomized to treatment groups comprised of 6-8 mice each. In each experiment, there are three groups of untreated control mice. Drugs are dissolved or suspended in appropriate aqueous vehicles and given by a variety of routes and schedules of administration over a range of dose levels. Animals are housed in shoebox cages and are monitored daily for mortality for 30 (L1210), 45 (P388) or 60 (B16, M5076, colon 26) days.

iv L1210 leukemia = conditions: iv L1210 (10^6 cells)
Source text: Animals were inoculated iv with 10^6 cells. Increase in lifespan (ILS) is based on median survival time of groups of 6 mice relative to untreated controls.
The protocols utilized for the evaluation of the antitumor activity of Formula (I) compounds are well established and widely utilized by those skilled in the art of assessing the activity of drugs in preclinical tumor models. These studies generally follow the protocols established by the National Cancer Institute as described by Geran et al., Cancer Chemotherapy Reports, Part 3, Vol. 3, 1-103, 1972.
Tumors used in these studies P388 leukemia, L1210 leukemia and Lewis lung carcinoma--are maintained by serial transplantation in syngeneic strains of mice, DBA/2 for the leukemias and C57B1/6 for Lewis lung carcinoma. The leukemias are serially transplanted i.p. as ascites cell suspensions while the Lewis lung carcinoma is serially transplanted as a s.c. solid tumor.
For therapeutic trials, tumors were aseptically removed from donor mice and prepared as suspensions for implantation into test animals which for each tumor are syngeneic female F1 hybrid B6D2F1 mice (C57B1/6×DBA/2). The inoculum level varies with the type of tumor: P388 leukemia is inoculated at 10^6 cells per mouse, L1210 leukemia at 10^5 or 10^6 cells per mouse, and Lewis lung carcinoma at 0.25 ml of a 10 percent (w:v) brei. […] After tumor inoculation, mice are randomized to treatment groups of 6 to 8 mice each. In each experiment, there are three groups of untreated control mice.
Drugs are dissolved or suspended in appropriate aqueous vehicles and given i.p. or i.v. on various treatment schedules over a range of dosage levels. Animals are housed in shoebox cages and monitored daily for mortality for 30 (L1210), 45 (P388) or 60 (Lewis lung) days.

L1210 leukemia cells = test: cells; format: cell-based, mouse; conditions: Mus musculus, L1210, read-out: In Vitro Activity IC50
Experimental: Cells were exposed continuously upon cloning into medium containing 0.2 percent Noble agar. After incubation at 37° C. in a CO2 incubator for 3 days, colonies were stained with viable cell specific formazan stain and, 24 hours later, were enumerated by a colony counter (Biotran II, New Brunswick Scientific Co., Edison, N.J.) adjusted to identify colonies of more than 50 cells. The concentration which reduced cloning efficiency by 50 percent IC50) was determined by interpolation.

[1] = ip-implanted L1210 leukemia in mice; conditions: mouse, in vivo, ip;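 also: each mouse received 10^6 L1210 cells intraperitoneally, with drug treatment also given by the i.p. route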
Experimental: (§1) For in vivo studies L1210 cells were implanted i.p. (10^6 per mouse)
(§2) and drugs were administered i.p. on Days 1 and 5. Increase in lifespan
(§3) (ILS) was based on median survival time of groups of 6 mice treated at th
maximally tolerated dose of the drugs.

ip L1210 leukemia = test: ip-implanted L1210 leukemia in mice;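 also: each mouse received 10^6 L1210 cells intraperitoneally, with drug treatment also given by the i.p. route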; conditions: ip L1210 (10^6 cells); drug i.p. Days 1 and 5 at maximally tolerated dose
Experimental: as §1, §2, §3
maximally tolerated dose of the drugs.

Compound	IC50 (L1210 leukemia cells) [nM]	MTD [1] [mg/kg]	In Vivo Antitumor Activity ILS (increase in lifespan) (ip L1210 leukemia) [%]	further results
CCC1(O)C(=O)OCc2c1cc1n(c2=O)Cc2cc3c(CN(C)C)c(O)ccc3nc2-1 (racemic) [Compound No. 1RS, (20 R,S)-9-Dimethylaminomethyl-10-hydroxycamptothecin Acetate Salt]	–	–	–	ILS (ip P388 leukemia; 3.6 mg/kg): 30%; ILS (ip P388 leukemia; 7.2 mg/kg): 80%; ILS (ip P388 leukemia; 14 mg/kg): 135%; ILS (ip P388 leukemia; 29 mg/kg): 165%; Long-term Survivors (tumor-free on Day 45) (ip P388 leukemia; 29 mg/kg): 1/6
CC[C@@]1(O)C(=O)OCc2c1cc1n(c2=O)Cc2cc3c(CN(C)C)c(O)ccc3nc2-1 [1S (dihydrochloride salt)]	–	–	–	ILS (iv L1210 leukemia; 5.4 mg/kg, Days 1 & 5, route ip in table head (iv), Dihydrochloride Salt): 50%; ILS (iv L1210 leukemia; 9 mg/kg, Days 1 & 5, route ip in table head (iv), Dihydrochloride Salt): 83%; ILS (iv L1210 leukemia; 15 mg/kg, Days 1 & 5, route ip in table head (iv in b213), Dihydrochloride Salt): 133%; ILS (iv L1210 leukemia; 15 mg/kg, Days 1 & 5, route ip in table head (iv in b213), listed as dihydrochloride, Dihydrochloride Salt): 133%
CC[C@@]1(O)C(=O)OCc2c1cc1n(c2=O)Cc2cc3c(CN(C)C)c(O)ccc3nc2-1 [1S (hydrochloride salt)]	–	–	–	ILS (iv L1210 leukemia; 3.2 mg/kg, Days 1 & 5, route ip in table head (iv)): 50%; ILS (iv L1210 leukemia; 5.4 mg/kg, Days 1 & 5, route ip in table head (iv), Monohydrochloride Salt): 92%; ILS (iv L1210 leukemia; 9 mg/kg, Days 1 & 5, route ip in table head (iv), Monohydrochloride Salt): 125%; ILS (iv L1210 leukemia; 15 mg/kg, Days 1 & 5, route ip in table head (iv in b213), Monohydrochloride Salt): 175%; ILS (iv L1210 leukemia; 15 mg/kg, Days 1 & 5, route ip in table head (iv in b213), listed as hydrochloride, Monohydrochloride Salt): 175%; ILS (iv L1210 leukemia; 25 mg/kg, Days 1 & 5, route ip in table head (iv)): toxic
CC[C@@]1(O)C(=O)OCc2c1cc1n(c2=O)Cc2cc3c(C=O)c(O)ccc3nc2-1 [2S, (20 S) 9-Formyl-10-hydroxycamptothecin]	260	42	75	–
CC[C@@]1(O)C(=O)OCc2c1cc1n(c2=O)Cc2cc3c(C[N+](C)(C)C)c(O)ccc3nc2-1 [3S, (20 S) 9-Trimethylammoniummethyl-10-hydroxycamptothecin Methanesulfonate Salt]	150	42	> 200	–
CC[C@@]1(O)C(=O)OCc2c1cc1n(c2=O)Cc2cc3c(CNCCO)c(O)ccc3nc2-1 [4S, (20 S) 9-(2'-Hydroxyethylamino) methyl-10-hydroxycamptothecin Acetate Salt]	250	42	75	–
CC[C@@]1(O)C(=O)OCc2c1cc1n(c2=O)Cc2cc3c(CN4CCOCC4)c(O)ccc3nc2-1 [5S]	370	100	83	–
CC[C@@]1(O)C(=O)OCc2c1cc1n(c2=O)Cc2cc3c(CN4CCN(C)CC4)c(O)ccc3nc2-1 [6S]	72	75	> 200	–
CC[C@@]1(O)C(=O)OCc2c1cc1n(c2=O)Cc2cc3c(CN4CCC(N5CCCCC5)CC4)c(O)ccc3nc2-1 [7S]	270	> 42	44	–
